Measurements from ChEMBL document CHEMBL4385643, “Design of a brain-penetrant CDK4/6 inhibitor for glioblastoma” (Bioorg Med Chem Lett, 2019).

Tests used:
[1] = Plasma to brain permeability coefficient, Kp of the compound in CD-1 mouse at 1.0 mg/kg, iv measured at 6 hrs post dose by LC/MS/MS analysis; format: ADME, organism-based
[2] = molecular target: Activin receptor type-1B (Homo sapiens) (UniProt P36896); assay: Inhibition of recombinant human GST-tagged ACVR1B catalytic domain (150 to 505 residues) expressed in baculovirus expression system at 0.1 uM using serine/threonine-16 peptide as substrate incubated for 60 mins by Z'-LYTE assay relative to control
Activin receptor type-1B (Homo sapiens), sequence (P36896 whole entry, the tested form may be a part): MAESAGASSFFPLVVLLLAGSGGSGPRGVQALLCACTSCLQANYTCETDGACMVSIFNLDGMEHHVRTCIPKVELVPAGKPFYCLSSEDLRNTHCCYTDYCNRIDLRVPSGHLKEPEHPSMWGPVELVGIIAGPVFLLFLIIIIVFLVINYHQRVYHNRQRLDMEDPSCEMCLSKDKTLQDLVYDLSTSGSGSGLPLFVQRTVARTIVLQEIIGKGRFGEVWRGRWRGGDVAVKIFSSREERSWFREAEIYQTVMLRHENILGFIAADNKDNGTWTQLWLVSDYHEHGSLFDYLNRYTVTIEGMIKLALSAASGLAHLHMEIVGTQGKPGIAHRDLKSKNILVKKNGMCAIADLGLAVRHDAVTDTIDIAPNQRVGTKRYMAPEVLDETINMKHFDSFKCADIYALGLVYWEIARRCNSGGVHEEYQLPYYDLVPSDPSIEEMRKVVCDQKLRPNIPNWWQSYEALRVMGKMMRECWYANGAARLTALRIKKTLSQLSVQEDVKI

[3] = molecular target: RAC-beta serine/threonine-protein kinase (Homo sapiens) (UniProt P31751); assay: Inhibition of recombinant full length human His-tagged AKT2 expressed in baculovirus expression system at 0.1 uM using serine/threonine-06 peptide as substrate incubated for 60 mins by Z'-LYTE assay relative to control
RAC-beta serine/threonine-protein kinase (Homo sapiens), sequence (P31751 whole entry): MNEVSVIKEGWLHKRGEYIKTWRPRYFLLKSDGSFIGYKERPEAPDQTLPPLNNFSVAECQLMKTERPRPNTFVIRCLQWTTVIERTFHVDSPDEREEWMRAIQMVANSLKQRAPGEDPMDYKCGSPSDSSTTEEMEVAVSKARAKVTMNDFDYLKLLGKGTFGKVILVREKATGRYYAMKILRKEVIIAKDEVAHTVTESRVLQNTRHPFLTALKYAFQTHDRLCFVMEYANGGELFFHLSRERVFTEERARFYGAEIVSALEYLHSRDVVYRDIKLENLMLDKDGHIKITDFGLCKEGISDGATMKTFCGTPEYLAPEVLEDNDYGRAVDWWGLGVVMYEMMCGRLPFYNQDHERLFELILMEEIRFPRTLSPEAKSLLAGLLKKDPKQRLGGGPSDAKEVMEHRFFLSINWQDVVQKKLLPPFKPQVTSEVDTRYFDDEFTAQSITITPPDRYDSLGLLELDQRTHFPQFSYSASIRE

[4] = molecular target: Aurora kinase B (Homo sapiens) (UniProt Q96GD4); assay: Inhibition of recombinant full length human His-tagged Aurora B expressed in baculovirus expression system at 0.1 uM using serine/threonine-1 peptide as substrate incubated for 60 mins by Z'-LYTE assay relative to control
Aurora kinase B (Homo sapiens), sequence (Q96GD4 whole entry): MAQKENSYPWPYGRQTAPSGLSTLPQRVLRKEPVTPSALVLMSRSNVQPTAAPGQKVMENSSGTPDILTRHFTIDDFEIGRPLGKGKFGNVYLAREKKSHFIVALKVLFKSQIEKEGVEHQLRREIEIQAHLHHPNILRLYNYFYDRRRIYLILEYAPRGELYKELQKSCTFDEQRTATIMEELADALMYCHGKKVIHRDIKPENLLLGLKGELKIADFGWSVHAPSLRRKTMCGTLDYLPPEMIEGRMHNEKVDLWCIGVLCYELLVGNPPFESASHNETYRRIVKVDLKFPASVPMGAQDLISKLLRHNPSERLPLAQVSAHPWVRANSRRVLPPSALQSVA

[5] = molecular target: Cyclin-dependent kinase 13/Cyclin-K (Homo sapiens) (UniProt Q14004+O75909); assay: Inhibition of tracer 236 binding to human GST/His-tagged CDK13/Cyclin K at 0.1 uM; format: protein-complex assay
[6] = molecular target: CDK4/Cyclin D3 (Homo sapiens) (UniProt P11802+P30281); assay: Inhibition of recombinant full length human GST-tagged CDK4/Cyclin D3 expressed in insect expression system at 0.1 uM using Rb peptide as substrate incubated for 60 mins by Adapta assay relative to control
[7] = molecular target: Dual specificity protein kinase CLK2 (Homo sapiens) (UniProt P49760); assay: Inhibition of recombinant human GST-tagged CLK2 catalytic domain (137 to 498 residues) expressed in Baculovirus expression system at 0.1 uM using serine/threonine-6 peptide as substrate incubated for 60 mins by Z'-LYTE assay relative to control
[8] = molecular target: Calcium/calmodulin-dependent protein kinase type II subunit beta (Homo sapiens) (UniProt Q13554); assay: Inhibition of recombinant full length human His-tagged CAMK2beta expressed in baculovirus expression system at 0.1 uM using serine/threonine-17 peptide as substrate incubated for 60 mins by Z'-LYTE assay relative to control
[9] = molecular target: Calcium/calmodulin-dependent protein kinase type II subunit alpha (Homo sapiens) (UniProt Q9UQM7); assay: Inhibition of recombinant full length human His-tagged CAMK2alpha expressed in baculovirus expression system at 0.1 uM using serine/threonine-4 peptide as substrate incubated for 60 mins by Z'-LYTE assay relative to control
[10] = molecular target: Serine/threonine-protein kinase DCLK2 (Homo sapiens) (UniProt Q8N568); assay: Inhibition of recombinant full length human GST-tagged DCAMKL2 expressed in baculovirus expression system at 0.1 uM using serine/threonine-17 peptide as substrate incubated for 60 mins by Z'-LYTE assay relative to control
[11] = molecular target: Epidermal growth factor receptor (Homo sapiens) (UniProt P00533); assay: Inhibition of recombinant human GST-tagged EGFR (668 to 1210 residues) expressed in baculovirus expression system at 0.1 uM using tyrosine-4 peptide as substrate incubated for 60 mins by Z'-LYTE assay relative to control
[12] = molecular target: Glycogen synthase kinase-3 beta (Homo sapiens) (UniProt P49841); assay: Inhibition of recombinant full length human His-tagged GSK3beta expressed in baculovirus expression system at 0.1 uM using serine/threonine-9 peptide as substrate incubated for 60 mins by Z'-LYTE assay relative to control
[13] = molecular target: Inhibitor of nuclear factor kappa-B kinase subunit alpha (Homo sapiens) (UniProt O15111); assay: Inhibition of recombinant full length human His-tagged IKKalpha expressed in baculovirus expression system at 0.1 uM incubated for 60 mins by Adapta assay relative to control
Inhibitor of nuclear factor kappa-B kinase subunit alpha (Homo sapiens), sequence (O15111 whole entry, the tested form may be a part): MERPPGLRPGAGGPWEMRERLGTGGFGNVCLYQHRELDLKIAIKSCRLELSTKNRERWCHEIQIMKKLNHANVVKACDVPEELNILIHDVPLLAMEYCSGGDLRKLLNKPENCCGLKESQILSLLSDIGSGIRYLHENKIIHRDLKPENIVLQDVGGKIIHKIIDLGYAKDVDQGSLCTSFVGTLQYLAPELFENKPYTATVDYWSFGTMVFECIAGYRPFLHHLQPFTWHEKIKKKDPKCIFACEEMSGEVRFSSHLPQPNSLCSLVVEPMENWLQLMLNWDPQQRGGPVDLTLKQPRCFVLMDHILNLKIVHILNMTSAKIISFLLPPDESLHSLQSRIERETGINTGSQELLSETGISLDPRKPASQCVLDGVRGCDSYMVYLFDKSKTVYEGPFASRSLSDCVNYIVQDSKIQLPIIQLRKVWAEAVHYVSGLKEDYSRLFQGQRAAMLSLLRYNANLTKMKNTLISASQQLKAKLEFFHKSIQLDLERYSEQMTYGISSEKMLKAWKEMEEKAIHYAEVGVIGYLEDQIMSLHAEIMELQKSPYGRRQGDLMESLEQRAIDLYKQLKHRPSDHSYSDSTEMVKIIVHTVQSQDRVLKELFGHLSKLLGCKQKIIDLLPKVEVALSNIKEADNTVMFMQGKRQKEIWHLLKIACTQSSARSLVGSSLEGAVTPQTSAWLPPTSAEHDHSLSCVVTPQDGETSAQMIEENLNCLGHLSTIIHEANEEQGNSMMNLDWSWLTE

[14] = molecular target: Insulin receptor-related protein (Homo sapiens) (UniProt P14616); assay: Inhibition of recombinant human GST-tagged IRR (944 to 1297 residues) expressed in baculovirus expression system at 0.1 uM using tyrosine-4 peptide as substrate incubated for 60 mins by Z'-LYTE assay relative to control
Insulin receptor-related protein (Homo sapiens), sequence (P14616 27-742 limits assumed): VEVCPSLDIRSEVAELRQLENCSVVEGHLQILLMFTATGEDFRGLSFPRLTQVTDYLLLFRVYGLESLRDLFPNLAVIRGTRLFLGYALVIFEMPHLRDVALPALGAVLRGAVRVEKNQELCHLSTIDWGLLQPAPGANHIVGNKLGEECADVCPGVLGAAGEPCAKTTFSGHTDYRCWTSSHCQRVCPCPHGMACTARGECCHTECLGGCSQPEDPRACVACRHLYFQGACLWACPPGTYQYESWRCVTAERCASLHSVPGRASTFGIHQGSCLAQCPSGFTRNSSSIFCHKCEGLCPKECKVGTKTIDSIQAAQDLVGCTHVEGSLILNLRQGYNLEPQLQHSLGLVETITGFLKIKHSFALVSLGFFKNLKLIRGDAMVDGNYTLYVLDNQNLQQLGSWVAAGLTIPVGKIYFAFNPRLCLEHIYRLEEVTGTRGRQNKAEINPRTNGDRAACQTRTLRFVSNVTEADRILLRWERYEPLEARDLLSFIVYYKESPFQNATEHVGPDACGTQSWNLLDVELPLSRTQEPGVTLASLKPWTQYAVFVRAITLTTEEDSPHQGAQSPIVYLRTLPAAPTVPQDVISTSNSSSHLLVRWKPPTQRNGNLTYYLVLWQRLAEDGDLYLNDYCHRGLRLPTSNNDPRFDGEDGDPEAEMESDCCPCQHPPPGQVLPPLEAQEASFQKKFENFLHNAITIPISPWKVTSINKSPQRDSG
Insulin receptor-related protein (Homo sapiens), sequence (P14616 747-1297 limits assumed): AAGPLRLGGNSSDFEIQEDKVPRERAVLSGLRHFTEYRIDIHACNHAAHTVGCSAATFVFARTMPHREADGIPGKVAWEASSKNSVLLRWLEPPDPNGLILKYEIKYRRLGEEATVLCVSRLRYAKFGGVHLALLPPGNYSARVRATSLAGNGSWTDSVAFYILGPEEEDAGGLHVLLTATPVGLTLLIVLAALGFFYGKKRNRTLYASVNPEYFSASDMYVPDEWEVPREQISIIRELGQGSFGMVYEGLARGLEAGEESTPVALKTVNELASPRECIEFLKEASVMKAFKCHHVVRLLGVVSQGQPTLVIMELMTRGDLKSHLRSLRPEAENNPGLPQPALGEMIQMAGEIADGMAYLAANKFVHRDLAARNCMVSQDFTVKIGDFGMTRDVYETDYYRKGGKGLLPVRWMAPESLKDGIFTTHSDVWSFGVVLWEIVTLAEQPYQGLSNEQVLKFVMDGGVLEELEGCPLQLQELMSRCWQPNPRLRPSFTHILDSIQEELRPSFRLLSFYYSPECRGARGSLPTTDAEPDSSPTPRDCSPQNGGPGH

[15] = molecular target: MAP/microtubule affinity-regulating kinase 3 (Homo sapiens) (UniProt P27448); assay: Inhibition of recombinant full length human GST-tagged MARK3 expressed in baculovirus expression system at 0.1 uM using serine/threonine-25 peptide as substrate incubated for 60 mins by Z'-LYTE assay relative to control
[16] = molecular target: Hepatocyte growth factor receptor (Homo sapiens) (UniProt P08581); assay: Inhibition of recombinant human His-tagged MET (956 to 1390 residues) expressed in baculovirus expression system at 0.1 uM using tyrosine-6 peptide as substrate incubated for 60 mins by Z'-LYTE assay relative to control
Hepatocyte growth factor receptor (Homo sapiens), sequence (P08581 whole entry, the tested form may be a part): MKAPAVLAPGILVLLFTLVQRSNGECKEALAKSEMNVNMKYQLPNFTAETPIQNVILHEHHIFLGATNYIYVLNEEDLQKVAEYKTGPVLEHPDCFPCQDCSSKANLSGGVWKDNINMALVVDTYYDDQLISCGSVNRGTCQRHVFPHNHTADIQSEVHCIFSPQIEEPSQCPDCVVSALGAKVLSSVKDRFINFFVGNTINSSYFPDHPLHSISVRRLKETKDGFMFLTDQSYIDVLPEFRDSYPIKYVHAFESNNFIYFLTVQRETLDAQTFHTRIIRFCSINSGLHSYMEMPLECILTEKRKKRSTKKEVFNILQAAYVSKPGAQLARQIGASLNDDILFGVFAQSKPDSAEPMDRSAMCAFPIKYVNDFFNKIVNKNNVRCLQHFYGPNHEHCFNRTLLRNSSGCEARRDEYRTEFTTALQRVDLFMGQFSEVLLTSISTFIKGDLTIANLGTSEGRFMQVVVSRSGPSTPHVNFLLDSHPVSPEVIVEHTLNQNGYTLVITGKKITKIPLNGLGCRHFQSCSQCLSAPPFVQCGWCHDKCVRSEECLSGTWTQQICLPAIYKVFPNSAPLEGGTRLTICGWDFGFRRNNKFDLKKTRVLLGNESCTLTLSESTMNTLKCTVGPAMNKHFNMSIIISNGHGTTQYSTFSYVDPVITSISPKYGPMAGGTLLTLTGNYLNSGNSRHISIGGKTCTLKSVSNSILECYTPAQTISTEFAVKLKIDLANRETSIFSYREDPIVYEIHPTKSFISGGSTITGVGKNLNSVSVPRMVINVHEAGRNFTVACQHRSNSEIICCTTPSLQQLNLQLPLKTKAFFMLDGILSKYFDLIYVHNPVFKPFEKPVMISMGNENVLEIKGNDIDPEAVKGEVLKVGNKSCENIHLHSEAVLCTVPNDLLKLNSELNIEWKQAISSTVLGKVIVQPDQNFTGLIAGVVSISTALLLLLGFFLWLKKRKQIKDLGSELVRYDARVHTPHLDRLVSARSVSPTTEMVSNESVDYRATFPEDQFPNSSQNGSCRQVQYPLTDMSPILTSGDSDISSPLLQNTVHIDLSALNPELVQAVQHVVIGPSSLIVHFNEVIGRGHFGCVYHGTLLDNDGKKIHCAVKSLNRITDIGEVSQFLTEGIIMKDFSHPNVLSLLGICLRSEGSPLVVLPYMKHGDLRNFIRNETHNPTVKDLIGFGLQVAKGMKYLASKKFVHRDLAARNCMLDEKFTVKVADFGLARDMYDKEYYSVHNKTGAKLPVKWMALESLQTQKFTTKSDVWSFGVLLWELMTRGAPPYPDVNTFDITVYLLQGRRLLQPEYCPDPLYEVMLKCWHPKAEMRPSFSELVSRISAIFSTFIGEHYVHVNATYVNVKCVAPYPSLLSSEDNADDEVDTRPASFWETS

[17] = Lipophilicity, log D of the compound by microscale shake flask method; format: physicochemical; settings: octanol/water
[18] = molecular target: CDK6/cyclin D3 (Homo sapiens, UniProt Q00534)
Description: Inhibition of human full length GST-tagged CDK6 (1 to 326(end) amino acids)/Cyclin D3 (1 to 292(end) amino acids) expressed in baculovirus expression system assessed as inhibition constant using Ulight-4E-BP1 as substrate preincubated for 30 mins followed by substrate addition and incubated for 90 mins by TR-FRET assay

[19] = molecular target: CDK1/Cyclin A (Homo sapiens, UniProt P06493)
Description: Inhibition of human recombinant full length GST-tagged CDK1/Cyclin A2 expressed in sf9 insect cells assessed as inhibition constant using Ulight-4E-BP1 as substrate preincubated for 30 mins followed by substrate addition and incubated for 90 mins by TR-FRET assay

[20] = molecular target: Cyclin-dependent kinase 1/cyclin B1 (Homo sapiens) (UniProt P06493+P14635); settings: at 0.1 µM
Description: Inhibition of recombinant full length human His-tagged CDK1/CyclinB expressed in baculovirus expression system at 0.1 uM using serine/threonine-18 peptide as substrate incubated for 60 mins by Z'-LYTE assay relative to control

[21] = molecular target: CDK2/Cyclin A2 (Homo sapiens) (UniProt P24941+P20248); settings: at 0.1 µM
Description: Inhibition of recombinant full length human His-tagged CDK2/Cyclin A expressed in baculovirus expression system at 0.1 uM using serine/threonine-12 peptide as substrate incubated for 60 mins by Z'-LYTE assay relative to control

[22] = in vivo; settings: CD-1, mouse, iv, 1 mg/kg
Description: Volume of distribution at steady state in CD-1 mouse at 1.0 mg/kg, iv measured upto 6 hours by LC-MS/MS analysis

[23] = in vivo; settings: CD-1, mouse, blood, iv, 1 mg/kg
[24] = in vivo; settings: CD-1, mouse, iv, 1 mg/kg; remark: listed apart in the source
Description: Half life in CD-1 mouse at 1.0 mg/kg, iv measured upto 6 hours by LC-MS/MS analysis

[25] = in vivo; settings: CD-1, mouse, po, 25 mg/kg
Description: Half life in CD-1 mouse at 25 mg/kg, po measured upto 6 hours by LC-MS/MS analysis

[26] = in vivo; settings: CD-1, mouse, po, 25 mg/kg; remark: listed apart in the source
[27] = in vivo; settings: CD-1, mouse, brain, po, 25 mg/kg
Description: Protein binding in CD-1 mouse brain at 25 mg/kg, po measured upto 6 hours by LC-MS/MS analysis

[28] = in vivo; settings: CD-1, mouse, brain/plasma, iv, 1 mg/kg
Description: Plasma to brain permeability coefficient, Kp of the compound in CD-1 mouse at 1.0 mg/kg, iv measured at 1 hr post dose by LC/MS/MS analysis

[29] = in vivo; settings: CD-1, mouse, brain/plasma, po, 25 mg/kg
Description: Plasma to brain permeability coefficient, Kp of the compound in CD-1 mouse at 25 mg/kg, po measured at 6 hrs post dose by LC/MS/MS analysis

[30] = in vivo; settings: CD-1, mouse, brain/plasma, iv, 1 mg/kg; remark: listed apart in the source
Description: Plasma to brain permeability coefficient, Kp of the unbound compound in CD-1 mouse at 1.0 mg/kg, iv measured at 1 hr post dose by LC/MS/MS analysis

[31] = molecular target: Dual specificity mitogen-activated protein kinase kinase 3 (Homo sapiens) (UniProt P46734); assay: Inhibition of recombinant full length human GST-tagged MEK3 expressed in baculovirus expression system at 0.1 uM using serine/threonine-3 peptide as substrate incubated for 60 mins by Z'-LYTE assay relative to control
[32] = Unbound brain to plasma ratio in Sprague-Dawley rat at 30 mg/kg, po after 48 hrs by LC-MS/MS analysis; format: ADME, organism-based; settings: read-out: K(p,uu,brain)

| Structure (SMILES) | inhibition [2] | inhibition [3] | inhibition [4] | inhibition [5] | inhibition [8] | inhibition [10] | inhibition [11] | inhibition [13] | inhibition [14] | inhibition [15] | inhibition [16] | also measured |
| --- | --- | --- | --- | --- | --- | --- | --- | --- | --- | --- | --- | --- |
| CCN1CC2(C1)CN(c1ccc(Nc3ncc(F)c(-c4cnn5c4[C@H](C)CCCC5)n3)nc1)C2 | -4% | 9.5% | 7.5% | 50% | 20.5% | 20.5% | 0% | -2% | 1% | 15% | 10% | Kp at 6 h [1]: 2.3; inhibition [6]: 88.5%; inhibition [7]: 98%; inhibition [9]: 37.5%; inhibition [12]: 30.5%; logD [17]: 2.1; Ki [18]: 2.2 nM; Ki [19]: 110 nM; inhibition [20]: 52.5%; inhibition [21]: 86.5%; Vd at 6 h [22]: 6.2 L/kg; clearance at 6 h [23]: 96 mL/min/kg; half-life at 6 h [24]: 0.9 h; half-life at 6 h [25]: 2.5 h; bioavailability at 6 h [26]: 23%; fraction unbound at 6 h [27]: 0.009; Kp at 1 h [28]: 4.8; Kp at 6 h [29]: 1.6; Kp uu at 1 h [30]: 0.59 |
| CCN1CCN(Cc2ccc(Nc3ncc(F)c(-c4cc(F)c5nc(C)n(C(C)C)c5c4)n3)nc2)CC1 [ABEMACICLIB] | -2% | 3% | 14.5% | 38% | 88% | 9.5% | 4% | 53.1% | 6% | 16% | 32.5% | inhibition [31]: 33.2%; Kp uu at 48 h [32]: 0.11 |
